Laboratory results taken from a melting point compilation (Tetko et al.; mined from patent text by program, amines drawn as free bases though some values may be those of a salt).

Row | SMILES | melting point
1 | COc1cc2c(cc1N1CCN(CC3=CC4=CSCC4=C3)CC1)OCC2 | 156 to 158 °C
2 | OCc1cn(C(c2ccccc2)(c2ccccc2)c2ccccc2)cn1 | 224 to 227 °C
3 | O=C(O)C(=O)c1ccc(OCCCn2c(=O)ccc3ccccc32)cc1 | 183 to 186 °C
4 | O=C(Cc1ccccc1C(=O)O)Nc1cccc(/C=C/c2nc(C3CCCCC3)cs2)c1 | 210 to 211 °C
5 | Cc1c(N2CCOCC2)c(F)cc2c(=O)c(C(=O)O)cn(C3CC3)c12 | 228 °C
6 | O=C(O)C1C(C=C(Cl)Cl)C12CCC2 (stereo not drawn) | 122 to 128 °C
7 | CCCCCCCCCCCCCc1c[nH]c(C=O)c1 | 61 to 64 °C
8 | CN1CCc2cc[nH]c2C(c2ccccc2)C1 (stereo not drawn) | 90 to 91 °C
9 | CCC(c1ccccc1)(c1ccccc1)c1ccnc(C(=O)O)c1 | 191 to 193 °C
10 | Clc1cc(Cl)n2c(-c3cccs3)ncc2n1 | 152 to 153 °C
11 | c1ccc2c(-c3nc(NC4CCCCC4)c4ccccc4n3)nccc2c1 | 275 to 277 °C
12 | Cn1c(=O)c(C(=O)O)nc2cc(F)c([N+](=O)[O-])cc21 | 173 to 175 °C
13 | CC(C)(C)C(=O)C(=CC(=O)c1ccc(Cl)cc1)n1cncn1 | 140 °C
14 | O=S1(=O)c2ccc(Cl)c3cccc(c23)N1CCCN1CCN(c2ccc(F)cc2)CC1 | 125 °C
15 | CCCCc1nc(Cl)c(C(=O)O)n1Cc1ccc2oc(-c3ccccc3C#N)c(OC)c2c1 | 158 to 160 °C
16 | COc1ccc(C(=O)N2CCN(c3ccc(N)c(C=CC(=O)O)c3)CC2)cc1OC | 168 to 170 °C
17 | Nc1cccc2c1ncc1nc3n(c12)CCCC3 | 275 to 278 °C
18 | CC(C)(C)Oc1nc2cc(F)c([N+](=O)[O-])cc2[nH]c1=NC#N | 161 to 164 °C
19 | COc1ccc2[nH]cc(CCc3nc4ccccc4c(=O)n3-c3ccccc3)c2c1 | 220 to 221 °C
20 | Cc1ccc(S(=O)(=O)NC(=O)OCCc2ccc(-n3c(CCC(=O)c4cccnc4)nc4cc(C(F)(F)F)c(Cl)cc43)cc2)cc1 | 89 to 95 °C
21 | CC1Oc2ccc(Cn3ccnc3)cc2NC1=O (stereo not drawn) | 219 to 222 °C
22 | COc1ccc(Nc2cc(-c3ccccc3)nc(N3CCC(O)CC3)n2)cc1Cl | 188 to 191 °C
23 | O=C(CCCN1CCCCC1)c1ccc2c(c1)C(=O)c1cc(C(=O)CCCN3CCCCC3)ccc1-2 | 168 to 170 °C

Row | SMILES | melting point
24 | C#CCN(Cc1cc2c(=O)n(CCN(C)C)c(CN3CCCCC3)nc2cc1Cl)c1ccc(C(=O)OC(C)(C)C)cc1 | 75 to 77 °C
25 | CCCCc1cn(Cc2ccc(-c3ccccc3C(=O)O)cc2)c2cc(C(=O)O)ccc2c1=O | > 260 °C
26 | OC(COc1ccc(-c2cc[nH]n2)cc1)CN1CCN(c2ccc(Cl)cc2)CC1 (stereo not drawn) | 211 to 212 °C
27 | Oc1ccc2nc(-c3cccc(Cl)c3)oc2c1 | 246 to 248 °C
28 | CC1(CCOC2CCCCO2)C(=O)NNC1=O (stereo not drawn) | 179 to 180 °C
29 | Cc1c(NC(=O)CC(C)(C)C)c(C)c2c(c1-c1cccc(N(C)C)c1)OCC2c1ccc(C(C)C)cc1 (stereo not drawn) | 197 to 199 °C
30 | O=C(Oc1cc(OC(=O)c2cc(O)cc(O)c2)c2ccccc2c1)c1cc(O)cc(O)c1 | 167 to 169 °C
31 | COc1ccc(O)c(C(C)(O)c2ccccc2)c1 (stereo not drawn) | 114 °C
32 | N#CCNC(=O)c1ccco1 | 85 to 93 °C
33 | Fc1ccc(C2(Cl)CN(C(c3ccccc3)c3ccccc3)C2)cc1 | 108 to 109 °C
34 | O=C1CCCC(=O)N1c1cc(Cl)cc(Cl)c1 | 172 to 174 °C
35 | Cc1cc(O)c(SCc2cccc(F)c2)c(=O)o1 | 124 °C
36 | COC(=O)C1=C(C)NC(C)=C(C(=O)OCCN2CCN(C(c3ccccc3)c3ccccc3)CC2)C1c1cccc([N+](=O)[O-])c1 (stereo not drawn) | 166 to 169 °C
37 | CCS(=O)(=O)Nc1cc(N=c2sc(=S)n3n2CCCC3)c(F)cc1Cl | 146 to 148 °C
38 | CC(=O)NC[C@H]1CN(c2ccc(-n3cc(-c4ccncc4)cn3)c(F)c2)C(=O)O1 | 204 to 205 °C
39 | Cc1ccccc1CN1CCC(n2c(C)c(-c3ccc(Cl)cc3)[nH]c2=O)CC1 | 218 to 220 °C
40 | CCC(=O)NC[C@H]1CN(c2ccc3c(c2)C[C@@H](C)N3C(=O)OCc2ccccc2)C(=O)O1 | 181 to 183 °C
41 | O=C(N[C@H]1CC[C@H](CCN2CCN(c3nccc4c3OCC4)CC2)CC1)C1(O)CC1 | 248 °C
42 | c1cn2nc(N3CCCC3)c3c(c2n1)CCCC3 | 128 °C
43 | CC1Nc2ccccc2N(Cc2ccccc2)C(=O)C1C/C=C/c1ccccc1 (stereo not drawn) | 119 to 120 °C
44 | COc1ccc(C(=O)Nc2ccc(F)c(F)c2)cc1NS(=O)(=O)c1ccc(C#N)cc1 | 228 to 230 °C
45 | CN(C)C(=O)N(C)Cc1ccc(CCn2cnc3cc(-c4ccc(Cl)cc4)sc3c2=O)cc1 | 160 to 165 °C
46 | CC1CC(N)=NN1c1ccccc1 (stereo not drawn) | 104 to 106 °C

Row | SMILES | melting point
47 | CCOc1ccc(-c2ccc3c(c2)C=C(C(=O)Nc2ccc(CN(C)C4CCOCC4)cc2)CCS3(=O)=O)cc1F | 233 to 235 °C
48 | N#Cc1ccccc1S(=O)(=O)c1ccc(N)cc1 | 177 to 179 °C
49 | Cc1cc(Cl)ccc1OCC(=O)N1Cc2ccc(C(=O)c3ccc(-c4ccccc4)cc3)n2Cc2ccccc21 | 102 to 105 °C
50 | N#CC(Cl)Cc1cccc([N+](=O)[O-])c1 (stereo not drawn) | 90 °C
51 | COc1cc(C=CC=O)cc(OC)c1OCc1ccccc1 | 114 to 115 °C
52 | O=C(O)Cn1c(-c2ccc(Cl)c(Cl)c2)nc2cccnc21 | 248 to 249 °C
53 | O=[N+]([O-])c1ccc(CN2CCN(c3ccc(F)cc3)CC2)cc1 | 139 to 141 °C
54 | COc1cc(N(CC(C)C)CC(C)C)ccc1CN1C(=O)C(C)(c2ccccc2Cl)c2cc(Cl)ccc21 (stereo not drawn) | 153 °C
55 | Nc1ccc(-c2nc3n(c2-c2ccc(N)cc2)CCS3)cc1 | 205 to 206 °C
56 | CC(C)(CCl)C(=O)N(O)c1ccccc1 | 120 to 121 °C
57 | COc1ccc(C2=NN(c3ccc(C4=NNC(=O)CC4C)cc3)C(=O)C3CC=CCC23)cc1OC (stereo not drawn) | 192 to 194 °C
58 | Cn1c(=O)c(-c2ccc(Cl)cc2Cl)cc2c3cc(-c4csc(COC(=O)C(C)(C)C)n4)ccc3n(C)c21 | 193 to 195 °C
59 | CC1CCC(c2ccc(Cl)c(Cl)c2)=NN1S(=O)(=O)c1ccc(I)cc1 (stereo not drawn) | 194 to 196 °C
60 | CCCCC(Cc1cc(C(C)(C)C)c(O)c(C(C)(C)C)c1)(C(=O)OC1CC(C)(C)N(C(C)=O)C(C)(C)C1)C(=O)OC1CC(C)(C)N(C(C)=O)C(C)(C)C1 | 120 to 124 °C
61 | Nc1cc(-c2nnc(CCc3cccc(C(F)(F)F)c3)o2)ccn1 | 161 to 163 °C
62 | C(=C\c1nc2ccccc2n1-c1ccccn1)/c1ccco1 | 164 to 165 °C
63 | Cc1ccc(CC2CCN(C(=O)C(=O)Nc3ccc(NS(C)(=O)=O)cc3)CC2)cc1 | 179 to 181 °C
64 | Cc1nnc2n1-c1sc(C#CCn3c4c(c5ccccc53)CCCC4)cc1C(c1ccccc1Cl)=NC2 | 164 to 166 °C
65 | O=S1(=O)NC2CCCN2c2c(F)cc(O)cc21 (stereo not drawn) | 167 to 169 °C
66 | Cc1ccc(S(=O)(=O)NC(=N)CCN2CCOC2=O)cc1 | 129 to 134 °C
67 | CC(=O)NC1(c2ccccc2)CCN(CC[C@@H](c2ccc(Cl)c(Cl)c2)[C@@H](O)c2cnnn2-c2ccccc2)CC1 (racemic) | 125 to 128 °C

Further lines, results first:

Row | melting point | SMILES
68 | 113 °C | CCCCCCC(=O)OCCOC(=O)NC1(C(=O)O)CC1
69 | 81 to 85 °C | Nc1ccc(CCNC(=O)C(F)(F)F)cc1
70 | 164 to 167 °C | Cc1cc(C(=O)Nc2c(C)cccc2O)c(Br)s1
71 | 212 to 215 °C | CCn1cc(CN(C(=O)C2CCCc3c(O)cccc32)c2ccc(C(C)C)cc2)cn1 (stereo not drawn)
72 | 126 to 128 °C | Cc1nccn1CCCNC(=O)c1cccnc1Cl
73 | 100 to 102 °C | CC(C)=CCOc1ccc(C(=O)C=Cc2cccs2)c(O)c1
74 | 96 to 98 °C | CN(Cc1ccccc1CC(=O)O)C(=O)OC(C)(C)C
75 | 48 to 50 °C | CCOC(=O)c1ccc(N(CC)Cc2ccc(Cl)cc2)cc1
76 | 92 to 93 °C | COC(=O)c1cc2c(C)ccc(C)c2n1C(C)=O
77 | 159 °C | CCOC(=O)C1Cn2c(nc3c(cnn3C)c2=O)S1 (stereo not drawn)
78 | 202 to 204 °C | CCOC(=O)c1ccc(CCc2cnc3[nH]c(N)nc(N)c2-3)cc1
79 | 107 to 108 °C | CCOC(=O)CC(C)Sc1nnc(S)s1 (stereo not drawn)
80 | 223 to 224 °C | CCOc1ccc(Nc2nnc(Cc3ccncc3)c3ccccc23)cc1
81 | 162 to 164 °C | COc1cc(OCCN2CCc3ccccc3C2)ccc1C=NNC(=O)c1ccc(O)c(N)c1
82 | 317 to 318 °C | CCc1nnc(-c2ccc(O)cc2)n1-c1ccc(O)cc1
83 | 128 °C | Cc1cc(Cl)ccc1C(=O)CN(C(=O)C(C)Cl)c1ccccc1 (stereo not drawn)

Row | melting point | SMILES
84 | 201 to 203 °C | Cc1c(C)c2ccc(OCCCN3CCC(NC(=O)c4ccccc4)CC3)cc2oc1=O
85 | 81 to 83 °C | COCCOc1ccnc(NCc2ccccc2)c1[N+](=O)[O-]
86 | 89 to 94 °C | CON=C(C(=O)OC)c1ccccc1C#CC(=O)c1ccccc1
87 | 140 to 143 °C | CCOC(=O)COc1cc(S(C)(=O)=O)ccc1C(=O)NCc1ccc(Br)cc1F
88 | 48 to 50 °C | CCOC(=O)CC(=O)c1ccc([N+](=O)[O-])c(C)c1
89 | 140 to 142 °C | CCCSC(C(N)=O)c1cccc(C(=O)c2ccc(F)cc2)c1N (stereo not drawn)
90 | 156 to 157 °C | CC(C)(C)OC(=O)CC1(O)CCc2c([nH]c3ccccc23)C1=O (stereo not drawn)
91 | 151 to 152 °C | CC(=O)c1ccc(SCCOc2ccc3ccccc3c2)cc1
92 | 96 to 97 °C | CCC(CC)(CC(=O)Nc1cccc(OCc2ccc3ccc(OC)cc3n2)c1)C(=O)O
93 | 108 to 110 °C | CC(C)(CCl)C(OC(=O)C(Cl)Cl)C(Oc1ccc(Cl)cc1)n1ccnc1 (stereo not drawn)
94 | 212 to 213 °C | CC(C)Oc1cc(Oc2ccc(S(C)(=O)=O)cn2)cc2cc(C3=NCC(CC(N)=O)S3)[nH]c12 (stereo not drawn)
95 | > 300 °C | CCC(CCC(=C(C#N)C(N)=O)c1cc(O)c(O)c(O)c1)NC(=O)C(C#N)=Cc1cc(O)c(O)c(O)c1 (stereo not drawn)
96 | 228 to 231 °C | COC(=O)C1(N(O)C(=O)Cc2c(C)cc(Cl)cc2C)CCN(OC)CC1
97 | 203 to 205 °C | COc1nc(C)nc(NC(=O)NS(=O)(=O)c2cccc3c2OS(=O)(=O)C(C)=C3)n1
98 | 154 to 155 °C | O=C(CCl)c1csc(C(=O)CCl)c1
